Data set [1] can be described thus: Solubility at room temperature in water, acid and basic conditions. Type of data set: physicochemical. The conditions noted are these: free acid, below HPLC detection limit, read-out: intrinsic solubility of the free acid. Here is the method: The solubility of 4-(3-{5-chloro-1-(diphenylmethyl)-2-[2-({[2-(trifluoromethyl)benzyl]sulfonyl}amino)ethyl]-1H-indol-3-yl}propyl)benzoic acid was measured at room temperature in water, acid and basic conditions.

Data set [2] deals with rat carrageenan-induced paw edema (CPE). The experiment in a line: Rat carrageenan-induced paw edema (CPE) study. The data set is classed as in vivo. How it is done:
Data from a rat carrageenan-induced paw edema (CPE) study indicated the minimum efficacious exposure of 4-(3-{5-chloro-1-(diphenylmethyl)-2-[2-({[2-(trifluoromethyl)benzyl]sulfonyl}amino)ethyl]-1H-indol-3-yl}propyl)benzoic acid was 1360 ng*hr/ml.

The source of these data is patent US20100069385A1, “LIQUID FORMULATIONS OF PHOSPHOLIPASE ENZYME INHIBITORS” (WYETH, priority 2006, published 2010).

Broadly, the solubility is how much of the substance goes into solution per volume.

`O=C(O)c1ccc(CCCc2c(CCNS(=O)(=O)Cc3ccccc3C(F)(F)F)n(C(c3ccccc3)c3ccccc3)c3ccc(Cl)cc23)cc1` [4-(3-{5-chloro-1-(diphenylmethyl)-2-[2-({[2-(trifluoromethyl)benzyl]sulfonyl}amino)ethyl]-1H-indol-3-yl}propyl)benzoic acid]: the solubility in data set [1] is less than 0.031 µg/mL. For the same compound, the minimum efficacious exposure in data set [2] worked out at 1360 ng·h/mL.
